# BindingDB's records for PubMed 1325033 (Universit&Acute, 1992)
# pKi: −log10 of the molar value. Several values for one entry are separate records, joined by “and”; a condition that tells them apart may be missing. Equal values may be shown once. Peptide text beside a SMILES is read from it.
# Target: T1, Pituitary adenylate cyclase-activating polypeptide (Rattus norvegicus, UniProt P13589)
# T1 sequence (P13589 whole entry): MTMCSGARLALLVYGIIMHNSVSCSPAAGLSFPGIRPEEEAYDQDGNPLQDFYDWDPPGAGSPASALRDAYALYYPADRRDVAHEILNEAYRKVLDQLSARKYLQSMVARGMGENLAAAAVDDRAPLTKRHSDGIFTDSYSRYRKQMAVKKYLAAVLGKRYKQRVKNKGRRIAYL
row,Molecule,pKi
1,CCC(C)[C@H](NC(=O)CN)C(=O)N[C@@H](Cc1ccccc1)C(=O)N[C@H](C(=O)N[C@@H](CC(=O)O)C(=O)N[C@@H](CO)C(=O)N[C@@H](Cc1ccc(O)cc1)C(=O)N[C@@H](CO)C(=O)N[C@@H](CCCN=C(N)N)C(=O)N[C@@H](Cc1ccc(O)cc1)C(=O)N[C@@H](CCCN=C(N)N)C(=O)N[C@@H](CCCCN)C(=O)N[C@@H](CCC(N)=O)C(=O)N[C@@H](CCSC)C(=O)N[C@@H](C)C(=O)N[C@H](C(=O)N[C@@H](CCCCN)C(=O)N[C@@H](CCCCN)C(=O)N[C@@H](Cc1ccc(O)cc1)C(=O)N[C@@H](CC(C)C)C(=O)N[C@@H](C)C(=O)N[C@@H](C)C(=O)N[C@H](C(=O)N[C@@H](CC(C)C)C(=O)NCC(=O)N[C@@H](CCCCN)C(=O)N[C@@H](CCCN=C(N)N)C(=O)N[C@@H](Cc1ccc(O)cc1)C(=O)N[C@@H](CCCCN)C(=O)N[C@@H](CCC(N)=O)C(=O)N[C@@H](CCCN=C(N)N)C(=O)N[C@H](C(=O)N[C@@H](CCCCN)C(=O)N[C@@H](CC(N)=O)C(=O)N[C@@H](CCCCN)C(N)=O)C(C)C)C(C)C)C(C)C)[C@@H](C)O (some centres not stated) [PACAP(4-38)] (HELM PEPTIDE1{G.[CCC(C)[C@H](N[*:1])C(=O)[*:2]].F.T.D.S.Y.S.R.Y.R.K.Q.M.A.V.K.K.Y.L.A.A.V.L.G.K.R.Y.K.Q.R.V.K.N.K.[am]}$$$$V2.0),6.52
2,CCC(C)[C@H](NC(=O)CNC(=O)[C@H](CC(=O)O)NC(=O)[C@@H](Cc1ccccc1)NC(=O)[C@@H](N)Cc1cnc[nH]1)C(=O)N[C@@H](Cc1ccccc1)C(=O)N[C@H](C(=O)N[C@@H](CC(=O)O)C(=O)N[C@@H](CO)C(=O)N[C@@H](Cc1ccc(O)cc1)C(=O)N[C@@H](CO)C(=O)N[C@@H](CCCN=C(N)N)C(=O)N[C@@H](Cc1ccc(O)cc1)C(=O)N[C@@H](CCCN=C(N)N)C(=O)N[C@@H](CCCCN)C(=O)N[C@@H](CCC(N)=O)C(=O)N[C@@H](CCSC)C(=O)N[C@@H](C)C(=O)N[C@H](C(=O)N[C@@H](CCCCN)C(=O)N[C@@H](CCCCN)C(=O)N[C@@H](Cc1ccc(O)cc1)C(=O)N[C@@H](CC(C)C)C(=O)N[C@@H](C)C(=O)N[C@@H](C)C(=O)N[C@H](C(=O)N[C@@H](CC(C)C)C(N)=O)C(C)C)C(C)C)[C@@H](C)O (stereo partly drawn) [[D-Phe2]PACAP-27],6.46 and 6.00
3,CCC(C)[C@H](NC(=O)CNC(=O)[C@H](CC(=O)O)NC(=O)[C@@H](Cc1ccccc1)NC(=O)[C@@H](N)Cc1cnc[nH]1)C(=O)N[C@@H](Cc1ccccc1)C(=O)N[C@H](C(=O)N[C@@H](CC(=O)O)C(=O)N[C@@H](CO)C(=O)N[C@@H](Cc1ccc(O)cc1)C(=O)N[C@@H](CO)C(=O)N[C@@H](CCCN=C(N)N)C(=O)N[C@@H](Cc1ccc(O)cc1)C(=O)N[C@@H](CCCN=C(N)N)C(=O)N[C@@H](CCCCN)C(=O)N[C@@H](CCC(N)=O)C(=O)N[C@@H](CCSC)C(=O)N[C@@H](C)C(=O)N[C@H](C(=O)N[C@@H](CCCCN)C(=O)N[C@@H](CCCCN)C(=O)N[C@@H](Cc1ccc(O)cc1)C(=O)N[C@@H](CC(C)C)C(=O)N[C@@H](C)C(=O)N[C@@H](C)C(=O)N[C@H](C(=O)N[C@@H](CC(C)C)C(=O)NCC(=O)N[C@@H](CCCCN)C(=O)N[C@@H](CCCN=C(N)N)C(=O)N[C@@H](Cc1ccc(O)cc1)C(=O)N[C@@H](CCCCN)C(=O)N[C@@H](CCC(N)=O)C(=O)N[C@@H](CCCN=C(N)N)C(=O)N[C@H](C(=O)N[C@@H](CCCCN)C(=O)N[C@@H](CC(N)=O)C(=O)N[C@@H](CCCCN)C(N)=O)C(C)C)C(C)C)C(C)C)[C@@H](C)O (stereo partly drawn) [[D-Phe2]PACAP-38] (HELM PEPTIDE1{H.[dF].D.G.[CCC(C)[C@H](N[*:1])C(=O)[*:2]].F.T.D.S.Y.S.R.Y.R.K.Q.M.A.V.K.K.Y.L.A.A.V.L.G.K.R.Y.K.Q.R.V.K.N.K.[am]}$$$$V2.0),8.30 and 7.40
4,H-FTDSYSRYRKQMAVKKYLAAVL-NH2 [PACAP(5-27)],6.52 and 5.70
5,"H-SNGIFTDSYSRYRKQMAVKKYLAAVL-NH2 [[Des-His1,Asn3]PACAP-27]",5.82 and 5.30
6,H-TDSYSRYRKQMAVKKYLAAVL-NH2 [PACAP(6-27)],5.40 and < 5.00
7,H-TDSYSRYRKQMAVKKYLAAVLGKRYKQRVKNK-NH2 [PACAP(7-38)],7.60 and 6.82
